#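 Briefly, cells in 96-well plates were exposed to five compound concentrations for 48 h, and endpoints were estimated by linear interpolation. GI50 = concentration required for 50% inhibition of growth.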 The source made the active and inactive calls. No stated cut-off is given here; in the data, active = GI50 up to about 1.1 µM and inactive = higher.
# Legend:
# Test in all cases: NCI-60 cell line screen, 48 h
# 786-0 = test system: 786-0
# A549 = test system: A549
# CCRF-CEM = test system: CCRF-CEM
# COLO 205 = test system: COLO 205
# HL-60 = test system: HL-60
# HOP-62 = test system: HOP-62
# LOX IMVI = test system: LOX IMVI
# MDA-MB-231 = test system: MDA-MB-231
# NCI-H226 = test system: NCI-H226
# OVCAR-4 = test system: OVCAR-4
# OVCAR-5 = test system: OVCAR-5
# SF-295 = test system: SF-295
# SF-539 = test system: SF-539
# SK-MEL-28 = test system: SK-MEL-28
# SK-MEL-5 = test system: SK-MEL-5
# SN12C = test system: SN12C
# SNB-19 = test system: SNB-19
# UACC-62 = test system: UACC-62
# Malme-3M = test system: Malme-3M
# UACC-257 = test system: UACC-257
SMILES,GI50 (786-0),GI50 (A549),GI50 (CCRF-CEM),GI50 (COLO 205),GI50 (HL-60),GI50 (HOP-62),GI50 (LOX IMVI),GI50 (MDA-MB-231),GI50 (NCI-H226),GI50 (OVCAR-4),GI50 (OVCAR-5),GI50 (SF-295),GI50 (SF-539),GI50 (SK-MEL-28),GI50 (SK-MEL-5),GI50 (SN12C),GI50 (SNB-19),GI50 (UACC-62),GI50 (Malme-3M),GI50 (UACC-257)
CN1N=C(c2ccncc2)OC1c1ccccc1F (configuration not stated),> 100 µM (inactive),> 100 µM (inactive),> 100 µM (inactive),> 100 µM (inactive),> 100 µM (inactive),> 100 µM (inactive),> 100 µM (inactive),> 100 µM (inactive),73.1 µM (inactive),> 100 µM (inactive),> 100 µM (inactive),> 100 µM (inactive),> 100 µM (inactive),> 100 µM (inactive),> 100 µM (inactive),> 100 µM (inactive),> 100 µM (inactive),> 100 µM (inactive),–,–
O=Cc1ccc(-c2cc(C=O)c(-c3cccs3)[nH]2)s1,48.4 µM (inactive),24.8 µM (inactive),20 µM (inactive),25.1 µM (inactive),–,21.3 µM (inactive),25.3 µM (inactive),29.6 µM (inactive),4.76 µM (inactive),26 µM (inactive),> 75 µM (inactive),21.8 µM (inactive),24.4 µM (inactive),36.3 µM (inactive),23 µM (inactive),53.6 µM (inactive),44.9 µM (inactive),27.5 µM (inactive),46.7 µM (inactive),48 µM (inactive)
CC(C)(C)OC(=O)NCCCCC1NC(=O)[C@@H]2Cc3c([nH]c4ccccc34)C(c3ccccc3)N2C1=O (some centres not stated),25.1 µM (inactive),38.4 µM (inactive),26.7 µM (inactive),21.1 µM (inactive),21.5 µM (inactive),30.3 µM (inactive),19.9 µM (inactive),27.4 µM (inactive),63.7 µM (inactive),48.5 µM (inactive),53.8 µM (inactive),22 µM (inactive),–,64.6 µM (inactive),27.6 µM (inactive),28.8 µM (inactive),50.1 µM (inactive),23.4 µM (inactive),31.1 µM (inactive),35.6 µM (inactive)
CC[N+]1(C)CCC(O)(/C=C/c2ccc(Cl)cc2)C(C(=O)/C=C/c2ccc(Cl)cc2)C1 (configuration not stated),3.01 µM (inactive),13.9 µM (inactive),1.08 µM (active),3.55 µM (inactive),1.6 µM (inactive),14.8 µM (inactive),2.71 µM (inactive),4.81 µM (inactive),–,28.4 µM (inactive),17.3 µM (inactive),16.2 µM (inactive),2.35 µM (inactive),6.17 µM (inactive),10.5 µM (inactive),7.11 µM (inactive),4.46 µM (inactive),13.8 µM (inactive),6.62 µM (inactive),14.5 µM (inactive)
CC(=O)c1cc(C)n2c1CS[C@@H]2c1ccccc1,19.7 µM (inactive),53 µM (inactive),16.3 µM (inactive),12.2 µM (inactive),34 µM (inactive),83.9 µM (inactive),26.3 µM (inactive),43.3 µM (inactive),41 µM (inactive),59.7 µM (inactive),> 100 µM (inactive),65.9 µM (inactive),–,> 100 µM (inactive),32.2 µM (inactive),57.3 µM (inactive),> 100 µM (inactive),–,> 100 µM (inactive),> 100 µM (inactive)
Oc1ccc(-c2nc(-c3cccnc3)c(-c3ccc(Cl)cc3)[nH]2)cc1O,12 µM (inactive),20.1 µM (inactive),4.48 µM (inactive),13.9 µM (inactive),5.05 µM (inactive),12.4 µM (inactive),9.82 µM (inactive),17.3 µM (inactive),16.2 µM (inactive),16.1 µM (inactive),18.7 µM (inactive),16.2 µM (inactive),–,17.5 µM (inactive),13 µM (inactive),13.2 µM (inactive),13 µM (inactive),11.2 µM (inactive),14 µM (inactive),15.1 µM (inactive)
CCn1c(-c2ccc(/N=N/Nc3ccc(-c4n[nH]c(=S)n4CC)cc3)cc2)n[nH]c1=S,4.24 µM (inactive),3.56 µM (inactive),3.91 µM (inactive),2.69 µM (inactive),2.93 µM (inactive),2.74 µM (inactive),3.46 µM (inactive),4.2 µM (inactive),2.24 µM (inactive),1.97 µM (inactive),–,2.46 µM (inactive),–,4.18 µM (inactive),1.49 µM (inactive),3.02 µM (inactive),2.55 µM (inactive),–,2.57 µM (inactive),3.15 µM (inactive)
Oc1nc(-c2cccc(F)c2)nc2ccccc12,38.6 µM (inactive),51.6 µM (inactive),> 21.3 µM (inactive),> 100 µM (inactive),> 100 µM (inactive),22.5 µM (inactive),> 100 µM (inactive),> 42.2 µM (inactive),> 100 µM (inactive),25 µM (inactive),> 100 µM (inactive),39.4 µM (inactive),–,> 76.7 µM (inactive),> 67.1 µM (inactive),> 49.9 µM (inactive),19.9 µM (inactive),23.1 µM (inactive),45.8 µM (inactive),> 91.6 µM (inactive)
O=C1/C(=C/c2ccccc2S)N=C(c2ccccc2)N1c1nc2ccc(Sc3ccccc3)cc2[nH]1,28.1 µM (inactive),36.6 µM (inactive),21 µM (inactive),20.4 µM (inactive),19.8 µM (inactive),41.9 µM (inactive),34 µM (inactive),26.1 µM (inactive),–,35.2 µM (inactive),32.4 µM (inactive),27.4 µM (inactive),–,36.5 µM (inactive),18.4 µM (inactive),26.4 µM (inactive),45.3 µM (inactive),21.9 µM (inactive),37.8 µM (inactive),23.6 µM (inactive)
COc1ccccc1N1CCN(Cn2c(=O)oc3cccnc32)CC1,> 100 µM (inactive),> 100 µM (inactive),66.7 µM (inactive),–,> 100 µM (inactive),> 100 µM (inactive),> 100 µM (inactive),> 100 µM (inactive),–,> 100 µM (inactive),> 100 µM (inactive),> 100 µM (inactive),> 100 µM (inactive),> 100 µM (inactive),> 100 µM (inactive),–,> 100 µM (inactive),–,> 100 µM (inactive),> 100 µM (inactive)
COc1ccc(/C=N/n2c(Cc3ccccc3)n[nH]c2=O)c(OC)c1,31 µM (inactive),> 39.5 µM (inactive),> 100 µM (inactive),> 31.6 µM (inactive),–,20.9 µM (inactive),27.5 µM (inactive),36.7 µM (inactive),33.8 µM (inactive),> 58.6 µM (inactive),49.1 µM (inactive),15.3 µM (inactive),28.8 µM (inactive),> 100 µM (inactive),> 71.4 µM (inactive),> 100 µM (inactive),28.2 µM (inactive),> 88.3 µM (inactive),59.2 µM (inactive),> 100 µM (inactive)
COc1ccc2nccc(SCC(=O)O)c2c1,> 100 µM (inactive),> 100 µM (inactive),> 100 µM (inactive),–,> 100 µM (inactive),> 100 µM (inactive),> 100 µM (inactive),> 100 µM (inactive),> 100 µM (inactive),> 100 µM (inactive),> 100 µM (inactive),> 100 µM (inactive),–,> 100 µM (inactive),> 100 µM (inactive),> 100 µM (inactive),> 100 µM (inactive),> 100 µM (inactive),–,> 100 µM (inactive)
CC1(CCCCO)C=CC(S(=O)(=O)c2ccccc2)CC1 (configuration not stated),3.96 µM (inactive),3.64 µM (inactive),2.67 µM (inactive),4.37 µM (inactive),–,2.64 µM (inactive),1.78 µM (inactive),4.31 µM (inactive),2.43 µM (inactive),8.67 µM (inactive),4.85 µM (inactive),12 µM (inactive),7.91 µM (inactive),14.9 µM (inactive),4.27 µM (inactive),11 µM (inactive),13.6 µM (inactive),6.15 µM (inactive),0.581 µM (active),4.41 µM (inactive)
CCOC(=O)CSc1[nH]c2nc(C)nc(Cl)c2c1C#N,> 10 µM (inactive),> 10 µM (inactive),> 10 µM (inactive),> 10 µM (inactive),> 10 µM (inactive),> 10 µM (inactive),> 10 µM (inactive),> 10 µM (inactive),–,> 10 µM (inactive),–,> 10 µM (inactive),–,> 10 µM (inactive),> 10 µM (inactive),> 10 µM (inactive),–,> 10 µM (inactive),> 10 µM (inactive),> 10 µM (inactive)
COc1cc(/C=C2/SC(c3ccccc3)N(c3cc(Cl)ccc3Cl)C2=O)cc(OC)c1OC (configuration not stated),> 100 µM (inactive),> 100 µM (inactive),38.5 µM (inactive),> 100 µM (inactive),51.9 µM (inactive),> 100 µM (inactive),67.6 µM (inactive),> 100 µM (inactive),> 100 µM (inactive),49.8 µM (inactive),> 100 µM (inactive),47.1 µM (inactive),–,87.7 µM (inactive),59.7 µM (inactive),> 100 µM (inactive),> 100 µM (inactive),44.2 µM (inactive),62.8 µM (inactive),> 100 µM (inactive)

# Reference: ChEMBL document CHEMBL1201862, “PubChem BioAssay data set” (2004)
